Patent US20260207570A1, “OPTIMIZED DOSING OF LERIGLITAZONE” (MINORYX THERAPEUTICS S.L., priority 2022, published 2026)
Where two headings read alike, the source gives them in different places.

Experiments:
[1] = Phase 1 single ascending dose (SAD) pharmacokinetics in healthy volunteers; format: in vivo, human; settings: for half-life / Tmax / Cmax / AUC(0-t) / AUC: male, human, plasma, oral; for Tmax: read-out: Tmax; for Cmax: plasma total, read-out: Cmax; for AUC(0-t) / AUC: geometric mean; for AUC: read-out: AUC
Method: (§1) Study design: A phase 1, randomized, double blind, placebo-controlled, single-center clinical study in 33 male healthy volunteers (HV) (19-54 years, 63.2-95.7 Kg) was conducted with leriglitazone HCl and divided in two parts: a single ascending dose (SAD) with three dose levels (30, 90 and 270 mg) in fasted conditions, followed with two dose levels (90 and 270 mg) in fed conditions; a multiple ascending dose (MAD) with a double-blind, parallel-design with two dose levels (135 and 270 mg) for 8 days and a separate cohort of subjects in an open-label parallel design with two dose levels (135 and 270 mg) including cerebrospinal fluid (CSF) collection on day 8. In the fasted conditions a fasting period of at least 4 hours was required before obtaining plasma samples. The food effect (FE) was assessed by comparing fasted with fed conditions (dosing after a high-fat breakfast per FDA definition with a calculated caloric content of 918 kcal). In the MAD part (fed) the medication was taken before a normal breakfast. Leriglitazone HCl was supplied by ChemConnection and an oral suspension of leriglitazone (20% w/v kleptose, 2% ethanol in 100 mM phosphate buffer pH=7.8) at 6 mg/ml was used in the study.
(§2) Blood, Urine and CSF sampling: In the SAD, blood samples were drawn at the following time points: pre-dose and 0.25, 0.5, 0.75, 1, 1.5, 2, 2.5, 3, 4, 5, 6, 8, 10, 12, 16, 24, 36, 48, 72, 96 and 120 hours post-dose. Urine was collected at pre-dose (within 12 hours prior to dosing) and over 0-6, 6-12, 12-24, 24-36, 36-48 hours post-dose collection intervals. In the MAD, blood samples were collected on day 1 at pre-dose and 0.25, 0.5, 0.75, 1, 1.5, 2, 2.5, 3, 4, 5, 6, 8, 10, 12, and 16 hours post-dose and at pre-dose and at 4 hours post-dose on day 2 to day 7, and on day 8 at pre-dose and 0.25, 0.5, 0.75, 1, 1.5, 2, 2.5, 3, 4, 5, 6, 8, 10, 12, 16, 24, 36, 48, 72, 96 and 120 hours post-dose. CSF were taken on day −1 and on day 8, at 4 hours post-dose.
(§3) Pharmacokinetic parameter calculation: PK parameters (Cmax, Tmax, t1/2, AUC0-t, CL/F, Vz/F, AUC0-t, RAUC, RCmax) were estimated using non-compartmental analysis (NCA) (Phoenix WinNonlin® Version 6.3).
(§4) Statistical analysis: Descriptive statistics for all relevant PK parameters: n, mean, minimum, median, maximum, geometric mean, and coefficient of variation (CV %); analysis of variance on Cmax and AUC to determine dose proportionality and food effect (FE).

[2] = Phase 1 multiple ascending dose (MAD) pharmacokinetics with CSF collection in healthy volunteers; format: in vivo, human; settings: for accumulation RCmax: day 8 vs day 1; for Kp at 4 h / concentration at 4 h / Tmax / Vd/F / Cmax: male, human, oral; for Kp at 4 h: CSF and plasma; for Tmax: Median, read-out: Tmax; for Vd/F: read-out: Vz/F; for Cmax: plasma total, geometric mean, read-out: Cmax
Method: as §1, §2, §3, §4
The ratio of unbound leriglitazone concentration in brain to unbound concentration in plasma (Kpu,u; Cb,u/Cp,u) was calculated dividing the unbound CSF Cmax by the unbound plasma Cmax. Fractions unbound in plasma (fu,p) to obtain the unbound Cmax values were already reported. Rodriguez-Pascau, L. et al., Sci. Transl. Med. 13, eabc0555 (2021).

[3] = plasma, 135 mg, 135 mg MD Day 1, n = 8
[4] = plasma, 135 mg, 135 mg MD Day 8, n = 8
[5] = plasma, 270 mg, 270 mg MD Day 1, n = 8
[6] = plasma, 270 mg, 270 mg MD Day 8, n = 7

- dose excreted in urine as free analyte ([1]; 48-hour collection period): < 0.01%
- dose excreted in urine as the analyte, mostly in a conjugated state ([1]; 48-hour collection period): 0.3%
- half-life ([1]; 30 mg, M3 section, SAD 30 mg fasted, n = 6, geometric mean (CV %), read-out: t1/2 (converted)): 22.1 h
- Tmax ([1]; 30 mg, SAD 30 mg fasted, n = 6, Median): 0.63 h
- Cmax ([1]; 30 mg, SAD 30 mg fasted, n = 6, geometric mean (CV %)): 828 ng/mL
- half-life ([1]; 90 mg, M3 section, SAD 90 mg fasted, n = 6, geometric mean (CV %), read-out: t1/2 (converted)): 23.2 h
- half-life ([1]; 90 mg, M3 section, SAD 90 mg fed, n = 3, geometric mean (CV %), read-out: t1/2 (converted)): 25.7 h
- Tmax ([1]; 90 mg, SAD 90 mg fasted, n = 6, Median): 0.63 h
- AUC(0-t) ([1]; 90 mg, SAD 90 mg fasted, n = 6): 59400 ng·h/mL
- AUC ([1]; 90 mg, SAD 90 mg fasted, n = 6): 61800 ng·h/mL
- Cmax ([1]; 90 mg, SAD 90 mg fasted, n = 6, geometric mean (CV %)): 2550 ng/mL
- Tmax ([1]; 90 mg, SAD 90 mg fed, n = 3, Median): 5 h
- AUC(0-t) ([1]; 90 mg, SAD 90 mg fed, n = 3): 59900 ng·h/mL
- AUC ([1]; 90 mg, SAD 90 mg fed, n = 3): 62200 ng·h/mL
- Cmax ([1]; 90 mg, SAD 90 mg fed, n = 3, geometric mean (CV %)): 1980 ng/mL
- half-life ([1]; 270 mg, M3 section, SAD 270 mg fasted, n = 5, geometric mean (CV %), read-out: t1/2 (converted)): 21.6 h
- half-life ([1]; 270 mg, M3 section, SAD 270 mg fed, n = 5, geometric mean (CV %), read-out: t1/2 (converted)): 22.7 h
- Tmax ([1]; 270 mg, SAD 270 mg fasted, n = 5, Median): 1.5 h
- Tmax ([1]; 270 mg, SAD 270 mg fed, n = 5, Median): 4 h
- AUC(0-t) ([1]; 270 mg, SAD 270 mg fed, n = 5): 155000 ng·h/mL
- AUC ([1]; 270 mg, SAD 270 mg fed, n = 5): 159000 ng·h/mL
- Cmax ([1]; 270 mg, SAD 270 mg fed, n = 5, geometric mean (CV %)): 5320 ng/mL
- Tmax ([1]; 270 mg, SAD fed conditions, 90 and 270 mg): 3 to 6 h
- half-life ([1]; SAD, read-out: Half-lives): 22 to 23 h
- CL/F ([2]; 135 mg MD Day 1, n = 8, geometric mean (CV %)): 3.69 (29.4) L./h
- CL/F ([2]; 135 mg MD Day 8, n = 8, geometric mean (CV %)): 2.15 (27.6) L./h
- CL/F ([2]; 270 mg MD Day 1, n = 8, geometric mean (CV %)): 3.29 (26.4) L./h
- Plasma C4h ([2]; 270 mg MD Day 8, 4 hours post-dose, total, geometric mean (CV %)): :5673 (34.2) ng/mL
- CL/F ([2]; 270 mg MD Day 8, n = 7, geometric mean (CV %)): 2.13 (25.9) L./h
- increase of CSF concentration on doubling the dose ([2]; 270 mg vs 135 mg, day 8, 4 hours post-dose): 1.7 fold
- accumulation RCmax ([2]; MAD 135 mg): 1.57
- accumulation RAUC ([2]; MAD 270 mg dose): 1.63
- accumulation RCmax ([2]; MAD 270 mg): 1.69
- brain penetration ([2]; judged from CSF to plasma concentrations): limited
- Kp at 4 h ([2]; 135 mg MD Day 8, geometric mean (CV %), read-out: CSF/Plasma): 0.004
- Kp at 4 h ([2]; 270 mg MD Day 8, geometric mean (CV %), read-out: CSF/Plasma): 0.004
- Kp at 4 h ([2]; day 8, 4 hours post-dose, read-out: total concentrations in CSF as share of total plasma concentrations): 0.004
- concentration at 4 h ([2]; CSF, 135 mg MD Day 8, 4 hours post-dose, total, geometric mean (CV %), read-out: CSF C4h): 13 ng/mL
- concentration at 4 h ([2]; CSF, 270 mg MD Day 8, 4 hours post-dose, total, geometric mean (CV %), read-out: CSF C4h): 22 ng/mL
- Tmax [2, 3]: 3.5 h
- Vd/F ([2]; plasma, 135 mg, 135 mg MD Day 1, n = 8, geometric mean (CV %)): 111 L
- Cmax [2, 3]: 2470 ng/mL
- Tmax [2, 4]: 2.75 h
- Vd/F ([2]; plasma, 135 mg, 135 mg MD Day 8, n = 8, geometric mean (CV %)): 63.5 L
- Cmax [2, 4]: 4150 ng/mL
- Tmax [2, 5]: 3.5 h
- Vd/F ([2]; plasma, 270 mg, 270 mg MD Day 1, n = 8, geometric mean (CV %)): 103 L
- Cmax [2, 5]: 5360 ng/mL
- Tmax [2, 6]: 2.5 h
- Vd/F ([2]; plasma, 270 mg, 270 mg MD Day 8, n = 7, geometric mean (CV %)): 69.3 L
- Cmax [2, 6]: 8030 ng/mL
- concentration at 4 h ([2]; plasma, 135 mg MD Day 8, 4 hours post-dose, total, geometric mean (CV %), read-out: Plasma C4h): 3600 ng/mL
Compound: CC(=O)c1ccc(CCOc2ccc(CC3SC(=O)NC3=O)cc2)nc1 (stereo not shown) [Compound M3, 5-[[4-[2-[5-acetylpyridin-2-yl]ethoxy]phenyl]methyl]-1,3-thiazolidine-2,4-dione]
